Source: US20260226037A1, “MICROTUBULE TARGETING AGENTS” (ARIEL SCIENTIFIC INNOVATIONS LTD., priority 2022, published 2026)
Where two headings read alike, the source gives them in different places. Where a SMILES comes first, the peptide text is derived from it. [ ]: non-standard residue; d: D form. The star is where a group is joined. Dolaproine = CO[C@@H]([C@@H]1CCCN1)[C@@H](C)C(=O)O; Dil = CC[C@H](C)[C@H](NC)[C@@H](CC(=O)O)OC; X1 = C[C@@H](N*)[C@@H](O)c1ccccc1; NMeV = CN[C@H](C(=O)O)C(C)C

Key:
[1] = test system: colchicine binding site on tubulin protein; assay: EBI competition assay, RPMI-8226 cells; type: cell-based; details: for prevention of covalent binding of EBI to the colchicine binding site: RPMI-8226 living cells
MCF7 cells = assay: XTT cytotoxicity, MCF7; type: cell-based; details: Homo sapiens; MCF7, breast adenocarcinoma, non-resistant
Experimental: (§1) The cytotoxic activity of the novel family was evaluated against various tumor cells, including myeloma cells, acute lymphoblastic leukemia cells, acute monocytic leukemia cells, chronic myelogenous leukemia cells, pancreatic cancer cells, breast cancer cells, uterine sarcoma cells, cervix adenocarcinoma cells, ovary cancer cells, melanoma cells, osteosarcoma cells, prostate cancer cells, lung cancer cells, neuroblastoma cells and colorectal adenocarcinoma cells by XTT assay.

NALM6 cells = assay: XTT cytotoxicity, NALM6; type: cell-based; details: NALM6, acute lymphoblastic leukemia, non-resistant, read-out: IC50
Experimental: as §1
(§2) Most tubulin-binding anticancer drugs currently used in the clinic are substrates for Pgp effux pump. […] The inventors tested the viability of NALM6 acute lymphoblastic leukemia cell line (ALL) and its corresponding doxorubicin resistant N6/ADR cell line that overexpress Pgp glycoprotein and has cross-resistance to vincristine.

RPMI-MR20 cells = assay: XTT cytotoxicity, RPMI-MR20; type: cell-based; details: for IC50: RPMI-MR20, mitoxantrone resistant, read-out: IC50; for IC50 ratio between resistant and non-resistant cells: RPMI-MR20 / RPMI 8226
Experimental: as §1

RPMI-DOX40 cells = assay: XTT cytotoxicity, RPMI-DOX40; type: cell-based; details: for IC50: RPMI-DOX40, multiple myeloma, P-gp overexpression, read-out: IC50; for IC50 ratio between resistant and non-resistant cells: RPMI-DOX40 / RPMI 8226
Experimental: as §1

MCF7-VP cells = assay: XTT cytotoxicity, MCF7-VP; type: cell-based; details: for IC50: Homo sapiens, MCF7-VP, breast adenocarcinoma, MRP overexpression; for IC50 ratio between resistant and non-resistant cells: MCF7-VP / MCF7
Experimental: as §1

MM1.R cells = assay: XTT cytotoxicity, MM1.R; type: cell-based; details: for IC50 ratio between resistant and non-resistant cells: MM1.R / MM1.S; for IC50: MM1.R, multiple myeloma, dexamethasone resistant, read-out: IC50
Experimental: as §1

N6/ADR cells = assay: XTT cytotoxicity, N6/ADR; type: cell-based; details: for IC50 ratio between resistant and non-resistant cells: N6/ADR / NALM6; for IC50: N6/ADR, acute lymphoblastic leukemia, P-gp overexpression, read-out: IC50; for sensitivity to Pgp glycoprotein overexpression: N6/ADR vs NALM6 dose response
Experimental: as §1, §2

RPMI-LR5 cells = assay: XTT cytotoxicity, RPMI-LR5; type: cell-based; details: for IC50: RPMI-LR5, multiple myeloma, melphalan resistant, read-out: IC50; for IC50 ratio between resistant and non-resistant cells: RPMI-LR5 / RPMI 8226
Experimental: as §1

RPMI 8226 cells = assay: XTT cytotoxicity, RPMI 8226; type: cell-based; details: RPMI 8226, multiple myeloma, non-resistant, read-out: IC50
Experimental: as §1

MES-SA/DX5 cells = assay: XTT cytotoxicity, MES-SA/DX5; type: cell-based; details: for IC50: MES-SA/DX5, uterine sarcoma, P-gp overexpression; for IC50 ratio between resistant and non-resistant cells: MES-SA/DX5 / MES-SA; for effectiveness in subline overexpressing PgP: MES-SA/DX5 vs MES-SA
Experimental: as §1

purified tubulin = assay: Tubulin polymerization, cell-free assay; type: biochemical; details: tubulin 2.00 mg/mL; 1, 15 and 30 μM; 37° C., 100 min; vs vehicle
Experimental: The effect of the compounds on their ability to inhibit tubulin polymerization, was tested against a vehicle control by evaluating polymerization of purified tubulin in a cell-free assay where tubulin (2.00 mg/mL) was exposed to vehicle control or 1, 15 and 30 μM of the compounds (n=2). Polymerizations were tracked by an increase in fluorescence excitation wavelength is 340-360 nm and emission wavelength at 410-460 nm. Fluorescence was monitored at 37° C. every 30 sec for 100 min.

MES-SA cells = assay: XTT cytotoxicity, MES-SA; type: cell-based; details: poorly differentiated uterine sarcoma, non-resistant
Experimental: as §1

MM1.S cells = assay: XTT cytotoxicity, MM1.S; type: cell-based; details: multiple myeloma, non-resistant, read-out: IC50
Experimental: as §1

A2780ADR cells = assay: XTT cytotoxicity, A2780ADR; type: cell-based; details: for IC50 ratio between resistant and non-resistant cells: A2780ADR / A2780; for IC50: A2780ADR, ovarian carcinoma, resistant
Experimental: as §1

A2780 cells = assay: XTT cytotoxicity, A2780; type: cell-based; details: A2780, ovarian carcinoma, non-resistant
Experimental: as §1

NCI-H69 cells = assay: XTT cytotoxicity, NCI-H69; type: cell-based; details: NCI-H69, small cell lung carcinoma, non-resistant
Experimental: as §1

NCI-H69 VCR/R cells = assay: XTT cytotoxicity, NCI-H69 VCR/R; type: cell-based; details: for IC50: NCI-H69 VCR/R, vincristine resistant; for IC50 ratio between resistant and non-resistant cells: NCI-H69 VCR/R / NCI-H69
Experimental: as §1

RPMI8226 cells = assay: Cell cycle distribution by flow cytometry; type: cell-based; details: 6 hours; IC50, IC50x2.5 and IC50x5 concentrations
Experimental: Cell cycle arrest is a shared consequence of MTAs treatment. The effects of cell cycle distribution were determined in RPMI8226 cells treated for 6 and 18 hours with a range of concentrations of the molecules. The cells were stained with propidium iodide and cell cycle distribution was measured using a cytoFLEX flow cytometer.

Row | Structure (SMILES) | prevention of covalent binding of EBI to the colchicine binding site [1] | IC50 (MCF7 cells) [µM] | IC50 (NALM6 cells; Homo sapiens, NALM-6) [µM] | IC50 (RPMI-MR20 cells) [µM] | IC50 ratio between resistant and non-resistant cells (RPMI-MR20 cells) | IC50 (RPMI-DOX40 cells) [µM] | IC50 ratio between resistant and non-resistant cells (RPMI-DOX40 cells) | IC50 (MCF7-VP cells) [µM] | IC50 ratio between resistant and non-resistant cells (MCF7-VP cells) | IC50 ratio between resistant and non-resistant cells (MM1.R cells) | IC50 (MM1.R cells; MM.1R) [µM] | IC50 ratio between resistant and non-resistant cells (N6/ADR cells) | IC50 (N6/ADR cells) [µM] | IC50 (RPMI-LR5 cells) [µM] | IC50 ratio between resistant and non-resistant cells (RPMI-LR5 cells) | IC50 (RPMI 8226 cells; Homo sapiens) [µM] | IC50 (MES-SA/DX5 cells; Homo sapiens) [µM] | IC50 ratio between resistant and non-resistant cells (MES-SA/DX5 cells) | IC50 (MES-SA cells; Homo sapiens) [µM] | IC50 (MM1.S cells; Homo sapiens) [µM] | further results
1 | Cc1c(C(=O)OCCCCO)oc2c1C(=O)CC(c1ncco1)C2 (centres unmarked) [SMS229, 4-hydroxybutyl-3-methyl-6-(oxazol-2-yl)-4-oxo-4,5,6,7-tetrahydrobenzofuran-2-carboxylate] | prevented the covalent binding of EBI to the colchicine binding site | 33.3 | 0.59 | 1.55 | 1.916 | 0.933 | 1.155 | 12 | 0.360 | >0.779 | > 1.6 | 1.136 | 0.67 | 0.958 | 1.186 | 0.808 | 3.19 | 0.700 | 4.56 | 2.05 | rate of tubulin polymerization (purified tubulin): inhibited the rate of tubulin polymerization in a concentration-dependent manner
2 | CC[C@]1(O)C[C@H]2CN(CCc3c([nH]c4ccccc34)[C@@](C(=O)OC)(c3cc4c(cc3OC)N(C=O)[C@H]3[C@@](O)(C(=O)OC)[C@H](OC(C)=O)[C@]5(CC)C=CCN6CC[C@]43[C@@H]65)C2)C1 [Vincristine, reference compound] | – | 0.078 | 0.0011 | 0.0003 | 0.158 | > 0.01 | >5.263 | 0.22 | 2.821 | 1.063 | 0.0017 | 10.909 | 0.012 | > 0.004 | >2.105 | 0.0019 | 3.68 | 3.684 | 0.999 | 0.0016 | IC50 ratio between resistant and non-resistant cells (A2780ADR cells): 77.000; resistance of cells to treatment (A2780ADR cells; A2780ADR ovary carcinoma cells): resistant to vincristine; IC50 (A2780ADR cells; A2780 ADR): 0.231 µM; IC50 (A2780 cells; Homo sapiens): 0.003 µM; sensitivity to Pgp glycoprotein overexpression (N6/ADR cells): sensitive to PgP; IC50 (NCI-H69 cells; Homo sapiens): 0.024 µM; effectiveness in subline overexpressing PgP (MES-SA/DX5 cells): less effective in the subline overexpressing PgP; IC50 (NCI-H69 VCR/R cells; Homo sapiens): > 1 µM; IC50 ratio between resistant and non-resistant cells (NCI-H69 VCR/R cells): >41.667; resistance of cells to treatment (NCI-H69 VCR/R cells; NCI-H69 VCR/R lung carcinoma cells): resistant to vincristine
3 | CCCCCOC(=O)c1[nH]c2c(c1C)C(O)CC(c1ncco1)C2 (centres unmarked) [SMS108, pentyl-4-hydroxy-3-methyl-6-(oxazol-2-yl)-4,5,6,7-tetrahydro-1H-indole-2-carboxylate] | did not prevent the covalent binding of EBI to the colchicine binding site | 7.12 | 0.345 | 0.388 | 0.752 | 0.498 | 0.965 | 5.9 | 0.828 | 1.633 | 1.2 | 0.957 | 0.33 | 0.427 | 0.828 | 0.516 | 0.49 | 0.700 | 0.7 | 0.735 | rate of tubulin polymerization (purified tubulin): inhibited the rate of tubulin polymerization in a concentration-dependent manner; cell cycle arrest (RPMI8226 cells): cell cycle arrest in G2M phase
4 | CC[C@H](C)[C@@H]([C@@H](CC(=O)N1CCC[C@H]1[C@H](OC)[C@@H](C)C(=O)N[C@H](C)[C@@H](O)c1ccccc1)OC)N(C)C(=O)[C@@H](NC(=O)[C@@H](NC)C(C)C)C(C)C [MMAE, reference compound] (H-[NMeV]V[Dil][Dolaproine]-X1) | – | – | – | – | – | > 0.015 | >6.000 | – | – | – | – | 2.667 | 0.0008 | > 0.015 | >6.000 | – | – | 165.037 | – | – | IC50 ratio between resistant and non-resistant cells (A2780ADR cells): 31.250; IC50 (A2780ADR cells): 0.025 µM; IC50 (NALM6 cells): 0.0003 µM; IC50 (A2780 cells): 0.0008 µM; IC50 (MM1.R cells): < 0.0025 µM; sensitivity to Pgp glycoprotein overexpression (N6/ADR cells): sensitive to PgP; IC50 (RPMI 8226 cells): < 0.0025 µM; IC50 (NCI-H69 cells): 0.003 µM; IC50 (MES-SA/DX5 cells): 2.74 µM; effectiveness in subline overexpressing PgP (MES-SA/DX5 cells): less effective in the subline overexpressing PgP; IC50 (MES-SA cells): 0.016 µM; IC50 ratio between resistant and non-resistant cells (NCI-H69 VCR/R cells): 0.667; IC50 (NCI-H69 VCR/R cells): 0.002 µM; IC50 (MM1.S cells): < 0.0025 µM
5 | Cc1c(C(=O)OCCCCO)[nH]c2c1C(=O)CC(c1ncco1)C2 (centres unmarked) [SMS096, 4-hydroxybutyl 3-methyl-6-(oxazol-2-yl)-4-oxo-4,5,6,7-tetrahydro-1H-indole-2-carboxylate] | prevented the covalent binding of EBI to the colchicine binding site | 7.84 | 0.624 | > 1.8 | >1.647 | 1.18 | 1.081 | 5.74 | 0.732 | 1.447 | 1.08 | 0.087 | 0.054 | 1.13 | 1.031 | 1.09 | 1.43 | 1.153 | 1.24 | 0.748 | relative affinity for the colchicine binding site ([1]; RPMI-8226 cells, EBI competition): higher affinity than SMS001, SMS182, SMS088 and SMS229; rate of tubulin polymerization (purified tubulin): inhibited the rate of tubulin polymerization in a concentration-dependent manner; cell cycle arrest (RPMI8226 cells): cell cycle arrest in G2M phase
